These results are taken from patent US9145386B2, “SOD-imitating metal complexes” (UNIVERSITAT DE VALENCIA, priority 2009, dated 2015).

The structures appear in SMILES notation.

Series [1] is described as follows: Potentiometric determination of protonation constants. Particulars: NaClO4 0.15 mol·dm^−3, 298.1±0.1 K; for logarithm of protonation constant, L + H = HL: standard deviation of last figure in brackets. The class given is physicochemical. The method, then:
(§1) Potentiometric measurements were performed to determine the acid-base behaviour of the new family of compounds, yielding the overall protonation constants required for the subsequent study on the formation of metal complexes with Cu(II), Fe(II) and Mn(II).
The numbers in brackets indicate the standard deviation of the last significant figure. ^a) The overall basicity constant is β=ΣKHjL

The nature of series [2]: Stability constants for the formation of metal complexes with Mn2+ (potentiometry). The format is physicochemical. On the procedure: as §1
The evaporation was in fact carried out in flasks, in contact with atmospheric oxygen.

For the molecule `c1cc2nc(c1)CNCCN(CCNCc1ccnc3ccccc13)CCNC2` [Compound 1], in series [1], the “Log β (overall basicity constant)” value is reported as 27.00(1); the “logarithm of protonation constant, H2L + H = H3L” value is listed as 5.94(1); the “logarithm of protonation constant, H3L + H = H4L” value is 2.82(1); the “logarithm of protonation constant, HL + H = H2L” value is recorded as 8.31(1). In addition, the “logarithm of protonation constant, L + H = HL” value in series [1] is 9.93(1). In series [2], the “stability constant (log K), Mn + L = MnL” value is 8.91(1); the “stability constant, Mn + L + H2O = MnL(OH) + H^+” value is listed as −1.36(1); the “stability constant, MnL + OH = MnL(OH)” value is listed as 3.45(1).
For the molecule `c1cc2nc(c1)CNCCN(CCNCc1ccc3ccccc3n1)CCNC2` [Compound 2], in series [1], the “Log β (overall basicity constant)” value was 24.66(2); the “logarithm of protonation constant, H2L + H = H3L” value is 6.23(1); the “logarithm of protonation constant, HL + H = H2L” value is listed as 8.40(1); the “logarithm of protonation constant, L + H = HL” value is 10.03(1). Besides, in series [2], the “stability constant (log K), Mn + L = MnL” value is on record as 11.08(1); the “stability constant, Mn + L + H = HMnL” value is given as 16.23(6); the “stability constant, MnL + H = HMnL” value is 5.15(2).
